# Source: paper PMC11210663 (Emerging Infectious Diseases, 2024)
# “Also recorded” adds a separate entry of the source.
# Columns and labels:
# [1] = system: influenza A(H1N1)pdm09 virus isolates with NA-I223V + S247N; format: biochemical
# [2] = system: influenza A(H1N1)pdm09 virus isolates with NA-I223V; format: biochemical
# [3] = system: influenza A(H1N1)pdm09 virus isolates with NA-S247N; format: biochemical
# [4] = system: influenza A(H1N1)pdm09 virus isolates with NA-I223V; format: cell-based
# [5] = system: influenza A(H1N1)pdm09 virus isolates with NA-S247N; format: cell-based
# [6] = system: influenza A(H1N1)pdm09 virus isolates with NA-I223V + S247N; format: cell-based
# [7] = read-out: NA inhibitors IC50, average ± SD
smiles,measurement,setting,value
"CCOC(=O)C1=C[C@@H](OC(CC)CC)[C@H](NC(C)=O)[C@@H](N)C1 [Oseltamivir, oseltamivir]",susceptibility to antiviral drugs,[1],reduced susceptibility
"CCC(CC)[C@H](NC(C)=O)[C@@H]1[C@H](O)[C@@H](C(=O)O)C[C@H]1N=C(N)N [Peramivir, peramivir]",NA inhibitors IC50 fold change,[2],0.08 ± 0.01 (1) fold
same,IC50,[2]; [7],0.08 nM
same,NA inhibitors IC50 fold change,[3],0.19 ± 0.01 (3) fold
same,IC50,[3]; [7],0.19 nM
same,NA inhibitors IC50 fold change,[1],0.29 ± 0.01 (4) fold
same,IC50,[1]; [7],0.29 nM
O=C1c2c(O)c(=O)ccn2N([C@@H]2c3ccccc3SCc3c2ccc(F)c3F)[C@@H]2COCCN12 [baloxavir],susceptibility to baloxavir,[4],susceptible
same,susceptibility to baloxavir,[5],susceptible
same,susceptibility to baloxavir,[6],retained susceptibility; also recorded: susceptible
